# Laboratory results: US8076352B2, “Administration of carboline derivatives useful in the treatment of cancer and other diseases” (PTC Therapeutics, Inc., priority 2004, dated 2011)
# Tested on: hypoxia-inducible endogenous VEGF expression in HeLa cells
# Assay: Hypoxia-inducible endogenous VEGF expression, VEGF ELISA of conditioned media (dose-response EC50)
# Type: cell-based
# Settings: HeLa cells under hypoxic conditions
# Method in brief: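 HeLa cells were cultured 24-48 h under hypoxia (1% O2, 5% CO2, balance N2) with or without compound. Conditioned-media VEGF protein was measured by ELISA against a standard curve. EC50 and CC50 come from percentage-inhibition curves over, e.g., seven concentrations, with maximal inhibition set at 100%.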
row,EC50 [nM],Compound
1,> 1000,Clc1ccc2[nH]c3c(c2c1)CCN(Cc1ccccc1)C3C1CCOC1 (centres unmarked) [Compound 264]
2,< 8,COCCOc1ccc(C2c3[nH]c4ccc(Cl)cc4c3CCN2C(=O)Oc2ccc(F)cc2)cc1 (centres unmarked) [Compound 388]

# Same assay, conditions: Homo sapiens, HeLa cells under hypoxic conditions
row,Compound,EC50 [nM]
1,COc1ccc(C2c3[nH]c4ccc(Cl)cc4c3CCN2C(=O)Oc2ccccc2)cc1 (centres unmarked) [Compound 60],8 to 40
2,CCOC(=O)N1CCc2c([nH]c3ccc(Cl)cc23)C1c1ccc(OCCCn2cncn2)cc1 (centres unmarked) [Compound 390],< 8
3,CCCOC(=O)N1CCc2c([nH]c3ccc(Cl)cc23)C1c1ccc(C)cc1 (centres unmarked) [Compound 42],< 8
4,CCOC(=O)N1CCc2c([nH]c3ccc(Cl)cc23)C1c1cc(F)cc(F)c1 (centres unmarked) [Compound 77],8 to 40
5,CCCCCC1c2[nH]c3ccc(Cl)cc3c2CCN1Cc1ccccc1 (centres unmarked) [Compound 208],200 to 1000
6,COc1ccc(C2c3[nH]c4ccc(Cl)cc4c3CCN2C(=O)O[C@H]2C[C@@H](C)CC[C@@H]2C(C)C)cc1 (some centres unmarked) [Compound 192],200 to 1000
7,COc1ccc(C2c3[nH]c4ccccc4c3CCN2C(=O)NC2CCCCC2)cc1 (centres unmarked) [Compound 295],> 1000
8,COc1ccc(C2c3[nH]c4ccc(Cl)cc4c3CCN2C(=O)OC(C)C)cc1 (centres unmarked) [Compound 57],8 to 40
9,CC(C)OC(=O)N1CCc2c([nH]c3ccc(Cl)cc23)C1c1cccc(Br)c1 (centres unmarked) [Compound 95],8 to 40
10,COc1ccc(C2NC(C(=O)O)Cc3c2[nH]c2ccc(Br)cc32)cc1 (centres unmarked) [Compound 300],> 1000
11,Clc1ccc2[nH]c3c(c2c1)CCNC3c1ccccc1Cl (centres unmarked) [Compound 197],200 to 1000
12,Cc1ccc(C2NCCc3c2[nH]c2ccc(Cl)cc32)cc1 (centres unmarked) [Compound 193],200 to 1000
13,CCOC(=O)Oc1ccc(C2c3[nH]c4ccc(Cl)cc4c3CCN2C(=O)OCC)cc1 (centres unmarked) [Compound 136],40 to 200
14,Clc1ccc2[nH]c3c(c2c1)CCN(c1ncccn1)C3c1ccc2c(c1)OCO2 (centres unmarked) [Compound 328],> 1000
15,CCOC(=O)N1CCc2c([nH]c3ccc(Cl)cc23)C1c1ccc(C(F)(F)F)cc1 (centres unmarked) [Compound 31],< 8
16,O=C(Oc1ccc(Cl)cc1)N1CCc2c([nH]c3ccc(Cl)cc23)C1c1ccc(OCCN2CCOCC2)cc1 (centres unmarked) [Compound 331],> 1000
17,CCOC(=O)N1CCc2c([nH]c3ccc(Cl)cc23)C1c1ccc(F)cc1F (centres unmarked) [Compound 21],< 8
18,Cc1ccc2[nH]c3c(c2c1)CCN(C(=O)Oc1ccc(Cl)cc1)C3c1ccc(C(C)C)cc1 (centres unmarked) [Compound 344],8 to 40
19,COCC(=O)N1CCc2c([nH]c3ccc(Br)cc23)C1c1ccccc1 (centres unmarked) [Compound 230],> 1000
20,Clc1ccc2[nH]c3c(c2c1)CCN(Cc1ccccc1)C3c1cc2c(cc1Cl)OCO2 (centres unmarked) [Compound 274],> 1000
21,COc1ccc(C2NCCc3c2[nH]c2ccc(OC)cc32)cc1 (centres unmarked) [Compound 323],> 1000
22,Clc1ccc2[nH]c3c(c2c1)CCNC3c1cccnc1 (centres unmarked) [Compound 319],> 1000
23,ON1CCc2c([nH]c3ccc(Br)cc23)C1c1ccc(Cl)cc1 (centres unmarked) [Compound 81],8 to 40
24,CC(=O)N1CCc2c([nH]c3ccc(Br)cc23)C1c1ccc(Br)cc1 (centres unmarked) [Compound 129],40 to 200
25,CCOC(=O)N1CCc2c([nH]c3ccc(Cl)cc23)C1c1cccc(F)c1 (centres unmarked) [Compound 51],8 to 40

# Other lines, results leading:
row,EC50 [nM],Compound
1,200 to 1000,Clc1ccc(CC2NCCc3c2[nH]c2ccc(Cl)cc32)c(Cl)c1 (centres unmarked) [Compound 222]
2,200 to 1000,COCC(=O)N1CCc2c([nH]c3ccc(Br)cc23)C1c1ccc(C(C)C)cc1 (centres unmarked) [Compound 187]
3,8 to 40,CC(C)OC(=O)N1CCc2c([nH]c3ccc(Cl)cc23)C1c1cccc(C(F)(F)F)c1 (centres unmarked) [Compound 85]
4,8 to 40,CC(C)OC(=O)N1CCc2c([nH]c3ccc(Cl)cc23)C1c1ccccc1 (centres unmarked) [Compound 101]
5,40 to 200,Clc1ccc2[nH]c3c(c2c1)CCNC3c1ccc(Cl)c(Cl)c1 (centres unmarked) [Compound 170]
6,40 to 200,CCOC(=O)N1CCc2c([nH]c3ccc(Cl)cc23)C1c1cccc([N+](=O)[O-])c1 (centres unmarked) [Compound 139]
7,200 to 1000,N#Cc1ccc(C2NCCc3c2[nH]c2ccc(Cl)cc32)cc1 (centres unmarked) [Compound 220]
8,200 to 1000,COc1ccc(C2c3[nH]c4ccc(Cl)cc4c3CCN2C(=O)NC(C)C)cc1 (centres unmarked) [Compound 177]
9,200 to 1000,COc1ccc(C2c3[nH]c4ccc(Cl)cc4c3CCN2C(=O)C(C)Oc2ccccc2)cc1 (centres unmarked) [Compound 375]
10,8 to 40,O=C(Oc1ccccc1)N1CCc2c([nH]c3ccc(Cl)cc23)C1c1ccccc1 (centres unmarked) [Compound 121]
11,8 to 40,COC(=O)N1CCc2c([nH]c3ccc(Cl)cc23)C1c1ccc(C#N)cc1 (centres unmarked) [Compound 118]
12,200 to 1000,Clc1ccc2[nH]c3c(c2c1)CCNC3c1ccc2c(c1)OCO2 (centres unmarked) [Compound 227]
13,> 1000,COc1ccc(C2c3[nH]c4ccc(Cl)cc4c3CCN2C(=O)N2CCOCC2)cc1 (centres unmarked) [Compound 334]
14,> 1000,CN(C)c1ccc(C2NCCc3c2[nH]c2ccc(Cl)cc32)cc1 (centres unmarked) [Compound 297]
15,< 8,O=C(OCCCl)N1CCc2c([nH]c3ccc(Cl)cc23)C1c1ccc(C(F)(F)F)cc1 (centres unmarked) [Compound 33]
16,8 to 40,CS(=O)(=O)c1ccc(C2c3[nH]c4ccc(Cl)cc4c3CCN2C(=O)Oc2ccc(Cl)cc2)cc1 (centres unmarked) [Compound 360]
17,40 to 200,CCCC(=O)N1CCc2c([nH]c3ccc(Cl)cc23)C1c1ccc(OC)c(OC)c1 (centres unmarked) [Compound 144]
18,40 to 200,CCCCCNC(=S)N1CCc2c([nH]c3ccc(Cl)cc23)C1c1ccc(C(C)C)cc1 (centres unmarked) [Compound 337]

# Same assay, conditions: Homo sapiens, HeLa cells, hypoxic conditions (1% O2)
row,Compound,EC50 [nM]
1,O=C(Oc1ccc(F)cc1)N1CCc2c([nH]c3ccc(Cl)cc23)C1c1ccc(OCCCCCCNCCCn2ccnc2)cc1 (centres unmarked) [Compound 779],40 to 200
2,CCOC(=O)N1CCc2c([nH]c3ccc(Cl)cc23)C1c1cccc(C(=O)N2CCN(C)CC2)c1 (centres unmarked) [Compound 529],200 to 1000
3,COCCCNCCCCCCOc1ccc(C2c3[nH]c4ccc(Cl)cc4c3CCN2C(=O)Oc2ccc(Cl)cc2)cc1 (centres unmarked) [Compound 785],< 8
4,CCOC(=O)N1CCc2c([nH]c3ccc(Cl)cc23)C1c1cccc(CN2CCN(CCOC)CC2)c1 (centres unmarked) [Compound 567],> 1000
5,CC(C)NCCCCOc1ccc(C2c3[nH]c4ccc(Cl)cc4c3CCN2C(=O)Oc2ccc(Cl)cc2)cc1 (centres unmarked) [Compound 700],8 to 40
6,CCOC(=O)N1CCc2c([nH]c3ccc(Br)cc23)C1c1ccc(C(F)(F)F)cc1 (centres unmarked) [Compound 434],< 8
7,CC(C)C1NCCc2c1[nH]c1ccc(Cl)cc21 (centres unmarked) [Compound 477],40 to 200
8,CCOC(=O)N1CCc2c([nH]c3ccc(Cl)cc23)C1c1ccc(S(=O)(=O)N2CCOCC2)cc1 (centres unmarked) [Compound 487],40 to 200
9,COc1ccc(C2c3[nH]c4ccc(Cl)cc4c3CCN2C(=O)Cc2ccc(Cl)cc2)cc1 (centres unmarked) [Compound 447],8 to 40
10,O=C(Oc1ccc(F)cc1)N1CCc2c([nH]c3ccc(Cl)cc23)C1c1ccc(OCCCCN2CCCC2)cc1 (centres unmarked) [Compound 736],< 8
11,CCC(Br)C(=O)N1CCc2c([nH]c3ccc(Cl)cc23)C1c1ccc(OC)cc1 (centres unmarked) [Compound 559],200 to 1000
12,COc1ccc(OC(=O)N2CCc3c([nH]c4ccc(Cl)cc34)C2c2ccc(OCCCN(C)C)cc2)cc1 (centres unmarked) [Compound 501],40 to 200
13,CC/C=C/CCC1c2[nH]c3ccc(Cl)cc3c2CCN1C(=O)OCC (centres unmarked) [Compound 439],< 8
14,CCOC(=O)N1CCc2c([nH]c3ccc(Cl)cc23)C1CC(C)SC (centres unmarked) [Compound 442],8 to 40
15,O=C(O)c1ccc(C2c3[nH]c4ccc(Cl)cc4c3CCN2C(=O)Oc2ccc(F)cc2)cc1 (centres unmarked) [Compound 581],> 1000
16,CCOC(=O)N1CCc2c([nH]c3ccc(Cl)cc23)C1c1cnc(NC)nc1 (centres unmarked) [Compound 506],40 to 200
17,CCOC(=O)N1CCc2c([nH]c3ccc(Cl)cc23)C1c1ccc(C(=O)N(C)CCc2ccccn2)cc1 (centres unmarked) [Compound 518],200 to 1000

# Next, values leading:
row,EC50 [nM],Compound
1,40 to 200,CCOC(=O)N1CCc2c([nH]c3ccc(Br)cc23)C1c1ccc(C(=O)NCCN2CCOCC2)cc1 (centres unmarked) [Compound 488]
2,40 to 200,CC(C)OC(=O)Nc1ccc(C2c3[nH]c4ccc(Cl)cc4c3CCN2C(=O)Oc2ccc(Cl)cc2)cc1 (centres unmarked) [Compound 489]
3,< 8,O=C(Oc1ccc(F)cc1)N1CCc2c([nH]c3ccc(Cl)cc23)C1c1ccc(OCCCCCCCl)cc1 (centres unmarked) [Compound 723]
4,8 to 40,O=C(Oc1ccccc1Cl)N1CCc2c([nH]c3ccc(Cl)cc23)C1c1ccc(OCCCCl)cc1 (centres unmarked) [Compound 713]
5,< 8,O=C(Oc1ccc(Br)cc1)N1CCc2c([nH]c3ccc(Cl)cc23)C1c1ccc(OCC(O)CO)cc1 (centres unmarked) [Compound 630]
6,< 8,O=C(Oc1ccc(F)cc1)N1CCc2c([nH]c3ccc(Cl)cc23)C1c1ccc(OCCCCCCn2cncn2)cc1 (centres unmarked) [Compound 781]
7,< 8,C=CCOc1ccc(C2c3[nH]c4ccc(Cl)cc4c3CCN2C(=O)Oc2ccccc2)cc1 (centres unmarked) [Compound 413]

# Same assay, conditions: Homo sapiens, HeLa cells, hypoxic conditions (1% O2, 5% CO2)
row,Compound,EC50 [nM]
1,COCCN(CCOC)CC(O)COc1ccc(C2c3[nH]c4ccc(Cl)cc4c3CCN2C(=O)Oc2ccc(F)cc2)cc1 (centres unmarked) [Compound 913],< 8
2,O=C(Oc1ccc(Cl)cc1)N1CCc2c([nH]c3ccc(Cl)cc23)C1c1ccc(N2CCCC2)cc1 (centres unmarked) [Compound 984],200 to 1000
3,COc1ccc(OC(=O)N2CCc3c([nH]c4ccc(Cl)cc34)C2c2ccc(OCCCn3ccnc3)cc2)cc1 (centres unmarked) [Compound 920],< 8
4,COCCN(C)CC(O)COc1ccc(C2c3[nH]c4ccc(Cl)cc4c3CCN2C(=O)Oc2ccc(F)cc2)cc1 (centres unmarked) [Compound 936],< 8
5,Cc1ccc(OC(=O)N2CCc3c([nH]c4ccc(Cl)cc34)C2c2ccc(OCCCn3cncn3)cc2)cc1 (centres unmarked) [Compound 882],< 8
6,NCC(O)COc1ccc(C2c3[nH]c4ccc(Cl)cc4c3CCN2C(=O)Oc2ccc(Cl)cc2)cc1 (centres unmarked) [Compound 846],40 to 200
7,COc1ccc(OC(=O)N2CCc3c([nH]c4ccc(Cl)cc34)C2c2ccc(OCCCCl)cc2)cc1 (centres unmarked) [Compound 944],8 to 40
8,COCCN(CCCOc1ccc(C2c3[nH]c4ccc(Cl)cc4c3CCN2C(=O)Oc2ccc(F)cc2)cc1)CCOC (centres unmarked) [Compound 990],< 8
